Test [1] deals with h-IAPP mouse islets. In words: Islets from aged h-IAPP transgenic mice treated ex vivo (qPCR). In kind it is cell-based. The note with it: 72 hr ex vivo, 15 month old mice. As to the method: (§1) Samples were run in triplicate and expression was normalized to the levels of the housekeeping controls Rplp0 (36b4) for human and mouse. Samples were analyzed by qPCR, using SYBR Green dye (Bio-rad). Statistical comparisons were made using Student's t test. Error bars are mean±SEM. Primers used are shown below: Mouse pancreatic islets were isolated as previously described (Yoshihara et al., 2010, Nat. Commun 1:127) with slight modification. Briefly, 0.5 mg/ml collagenase P (Roche REF 1213873001, diluted in HBSS buffer, GIBCO, 14170-112) was injected through the common bile duct, and the perfused pancreas dissected and incubated at 37° C. for 21 min. Digested exocrine cells and intact islets were separated via centrifugation (900×g for 15 min) over Histopaque-1077 (Sigma, H8889), and intact islets were manually selected. Human islets were provided by the Integrated Islets Distribution Program (see details below).
A general note: Quantitative PCR measures a nucleic acid by following its amplification.

Test [2] deals with db/db (BKS) mice. In words: db/db (BKS) mouse T2D model treatment. In kind it is in vivo. As to the method:
The following mice strains were from Jackson: VDR KO (B6.129S4-Vdrtm1Mbd/J), B6 db (B6.BKS(D)-Leprdb/J), BKS db (BKS.Cg-Dock7m+/+ Leprdb/J), C57BL6/J. Animals were maintained in a specific pathogen-free animal facility on a 12-hr light-dark cycle at an ambient temperature of 23° C. Water and food were provided ad lib. All animal experiments used age-matched male mice. VDR KO and control littermate mice were maintained on a VDR KO rescue diet containing 21% calcium, 0.67% phosphorus, and 20% lactose supplemented with 4.4 U vitamin D per gram diet.
db/db (B6) mice were grouped based on glucose levels at the age of 5 weeks. Treatments were started from 6 weeks and animals were treated with vehicle (30% 2-Hydroxypropyl-β Cyclodextrin, Sigma, H-107) or drugs 3 times a week. […] For db/db (BKS) mice, treatment started from age of 10 weeks.
For immunohistochemistry, FFPE tissues sections were deparaffinized and antigen retrieval performed using Vector Antigen Unmasking buffer (H3301). VectaStain ABC kit and ImmPACT DAB substrate (Vector Lab) were used to develop signal. Antibodies used: Pro-insulin (R&D, MAB13361, 1:100), insulin (Abcam, ab7842, 1:100), MAFA (Novus, NB400-137, 1:50), NKX6-1 (Cell Signaling, 54551, 1:100), and Glucagon (Abcam, ab82270, 1:100). DAPI-containing mounting media ([…] mounting medium for fluorescence) was used for nuclear staining. Immunostaining was visualized by ZEISS 780 confocal microscopy analysis.
ELISA were performed per manufacturer's instructions: mouse insulin (Millipore, EZRMI-13K), mouse proinsulin (Mercodia, NC9088881).

Test [3] has as its system human islets. Nature of the test: Human islets under cytokine stress, transmission electron microscopy. In kind it is cell-based. The note with it: 24 hours. As to the method:
as §1, with “Mouse” for “Samples were run in triplicate and expression was normalized to the levels of the housekeeping controls Rplp0 (36b4) for human and mouse. Samples were analyzed by qPCR, using SYBR Green dye (Bio-rad). Statistical comparisons were made using Student's t test. Error bars are mean±SEM. Primers used are shown below: Mouse”
Islets in suspension were pelleted in 2% low melting point agarose and subsequently fixed in 2.5% glutaraldehyde with 2% paraformaldehyde in 0.15M cacodylate buffer containing 2 mM calcium chloride, pH 7.4, for one hour at 4° C. The pellet was trimmed down to contain the minimal amount of agarose possible, washed in buffer, and secondarily fixed in 1% osmium tetroxide/0.3% potassium ferrocyanide in buffer. Subsequently, the pellet was washed in water and en bloc stained with 2% uranyl acetate followed by a graded dehydration in ethanol (35%, 50%, 70%, 90%, 100%, 100%). […]

Test [4] has as its system INS1 cells. Nature of the test: Thapsigargin or tunicamycin-induced ER stress in INS1 cells (p-PERK Western). In kind it is cell-based, rat. Conditions: Cal pre-treated 1 hour, stressor overnight.
The target in test [5] is T1, VDR-BRD9 interaction (Homo sapiens, UniProt P11473+Q9H8M2).
T1 construct: endogenous BRD9 co-immunoprecipitates with HA-tagged VDR; expressed in transfected cells; host or cells: 293T
T1 sequence (P11473 1-427): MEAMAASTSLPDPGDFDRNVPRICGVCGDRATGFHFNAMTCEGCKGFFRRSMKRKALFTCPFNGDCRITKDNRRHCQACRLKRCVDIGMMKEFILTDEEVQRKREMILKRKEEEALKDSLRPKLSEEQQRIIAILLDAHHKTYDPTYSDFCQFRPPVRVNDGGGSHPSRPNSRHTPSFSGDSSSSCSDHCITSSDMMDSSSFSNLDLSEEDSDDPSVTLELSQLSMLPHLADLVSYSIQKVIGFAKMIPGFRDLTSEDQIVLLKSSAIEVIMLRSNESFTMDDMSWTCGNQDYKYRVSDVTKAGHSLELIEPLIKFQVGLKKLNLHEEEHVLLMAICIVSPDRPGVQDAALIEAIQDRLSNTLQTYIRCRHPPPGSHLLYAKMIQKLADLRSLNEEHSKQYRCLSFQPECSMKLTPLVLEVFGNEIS
T1 sequence (Q9H8M2 1-597): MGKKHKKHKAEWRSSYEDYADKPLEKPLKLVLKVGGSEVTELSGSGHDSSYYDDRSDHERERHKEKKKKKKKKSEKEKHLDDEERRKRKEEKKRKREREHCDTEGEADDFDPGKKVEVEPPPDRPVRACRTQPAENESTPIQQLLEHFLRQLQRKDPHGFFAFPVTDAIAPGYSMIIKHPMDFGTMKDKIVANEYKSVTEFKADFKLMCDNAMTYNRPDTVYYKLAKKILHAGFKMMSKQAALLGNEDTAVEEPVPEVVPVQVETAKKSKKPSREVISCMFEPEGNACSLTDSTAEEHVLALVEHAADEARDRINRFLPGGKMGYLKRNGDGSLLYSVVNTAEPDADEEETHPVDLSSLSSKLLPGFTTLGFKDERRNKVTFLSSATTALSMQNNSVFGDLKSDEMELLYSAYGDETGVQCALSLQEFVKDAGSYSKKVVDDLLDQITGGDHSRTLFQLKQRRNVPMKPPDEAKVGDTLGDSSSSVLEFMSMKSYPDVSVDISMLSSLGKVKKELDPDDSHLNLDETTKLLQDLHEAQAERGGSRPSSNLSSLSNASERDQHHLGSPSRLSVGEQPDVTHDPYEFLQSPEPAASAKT
Nature of the test: Co-immunoprecipitation of VDR and BRD9 in 293T cells. In kind it is cell-based. Conditions: proteomic and Western blot. For orientation: In western blotting, separated proteins are transferred to a membrane and probed.
Protocol: Briefly, cells are lysed using ice-cold lysis buffer (HEPES 20 mM pH8, EDTA 0.2 mM, NaCl 0.3 mM, NP40 0.5%, 15% glycerol) for 15 min, and after centrifuging the supernatant was collected. For HA- or Flag-tagged proteins, immunoprecipitations were performed using HA-magnetic beads (Pierce, P188836), or Flag-magnetic beads (Sigma, M8823) for 1.5 hr at 4° C. For other immunoprecipitations, primary antibodies were incubated with lysates for 2 hr followed by Protein A magnetic beads (Life Technologies, 10001D). After 3 washes with wash buffer (HEPES 10 mM pH8, EDTA 0.2 mM, NaCl 0.3 mM, NP40 0.1%, 15% glycerol), the beads were boiled with NuPage LDS sample buffer and the lysates were stored at −20° C.

Regarding `C=C1/C(=C\C=C2/CCC[C@]3(C)[C@@H]([C@H](C)/C=C/[C@@H](O)C4CC4)CC[C@@H]23)C[C@@H](O)C[C@@H]1O` [Cal, calcipotriol], the “inflammatory and stress markers” value in test [1] is “reduced”. Further, the serum insulin levels entry in test [2] (fasting) is “higher fasting serum insulin levels”. In addition, the “fasting blood glucose / glucose management” value in test [2] (i.p. 3 times a week) is given as “only limited improvements”. Moreover, the “ER stress markers Calnexin and PERK” value in test [2] (immunohistochemistry of pancreatic sections) is recorded as “reduced”. Further, the “intracellular insulin level (immunofluorescence)” value in test [2] (pancreas sections) is “rescued”. In test [3], the “cytokine-induced morphological degeneration (insulin granules, ER)” value is given as “partially rescues the morphological degeneration”. Besides, the “ER stress (p-PERK)” value in test [4] was “attenuated”.
`CCn1cc(-c2cccc(C(F)(F)F)c2)c2sc(C(=N)NC3CCS(=O)(=O)CC3)cc2c1=O` [iBRD9]: the “interaction between VDR and BRD9” value in test [5] is “reduced the interaction between VDR and BRD9”.
